According to patent US11053204B2, “Pyrimidinyloxy benzene derivatives as herbicides” (FMC Corporation, priority 2015, dated 2021):

Experiments:
Format in all cases: in vivo
[1] = system: sedge, umbrella (small-flower umbrella sedge, Cyperus difformis); experiment: Test B flooded paddy test, plant response rating; conditions: 250 g ai/ha; Flood; scale of 0 to 100 where 0 is no effect and 100 is complete control; 13 to 15 days
In short: (§1)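 Under a constant 3 cm flood, test compounds went directly into the paddy water. Following 13 to 15 days of greenhouse growth, treated species and controls were compared by eye.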

[2] = system: barnyardgrass (Echinochloa crus-galli); experiment: Test B flooded paddy test, plant response rating; conditions: 250 g ai/ha; Flood; scale of 0 to 100 where 0 is no effect and 100 is complete control; 13 to 15 days
In short: as §1

[3] = system: ducksalad (Heteranthera limosa); experiment: Test B flooded paddy test, plant response rating; conditions: 250 g ai/ha; Flood; scale of 0 to 100 where 0 is no effect and 100 is complete control; 13 to 15 days
In short: as §1

rice (Oryza sativa) = experiment: Test B flooded paddy test, plant response rating; conditions: 250 g ai/ha; Flood; scale of 0 to 100 where 0 is no effect and 100 is complete control; 13 to 15 days
In short: as §1

[4] = system: giant foxtail (Setaria faberii); experiment: Test A preemergence, visual injury rating
In short: (§2)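 Visual 0–100 rating (100 = complete control) taken about 10 d post-treatment relative to untreated checks. Preemergence: directed soil spray on sown loam/sand pots. Postemergence: seedlings 2–10 cm, 1–2 leaf. Non-phytotoxic solvent formulation with surfactant.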

[5] = system: ragweed (common ragweed, Ambrosia elatior); experiment: Test A preemergence, visual injury rating
In short: as §2

kochia (Kochia scoparia) [6] = experiment: Test A preemergence, visual injury rating
In short: as §2

[7] = system: pigweed (Amaranthus retroflexus); experiment: Test A preemergence, visual injury rating
In short: as §2

[8] = system: Italian ryegrass (Lolium multiflorum); experiment: Test A preemergence, visual injury rating
In short: as §2

[9] = system: barnyardgrass (Echinochloa crus-galli); experiment: Test A preemergence, visual injury rating
In short: as §2

[10] = system: blackgrass (Alopecurus myosuroides); experiment: Test A postemergence, visual injury rating; conditions: 0 to 100 scale, 0 is no effect, 100 is complete control, approximately 10 days
In short: as §2

[11] = system: giant foxtail (Setaria faberii); experiment: Test A postemergence, visual injury rating; conditions: 0 to 100 scale, 0 is no effect, 100 is complete control, approximately 10 days
In short: as §2

[12] = system: galium (catchweed bedstraw, Galium aparine); experiment: Test A postemergence, visual injury rating; conditions: 0 to 100 scale, 0 is no effect, 100 is complete control, approximately 10 days
In short: as §2

[13] = system: ragweed (common ragweed, Ambrosia elatior); experiment: Test A postemergence, visual injury rating; conditions: 0 to 100 scale, 0 is no effect, 100 is complete control, approximately 10 days
In short: as §2

corn (Zea mays) = experiment: Test A postemergence, visual injury rating; conditions: 0 to 100 scale, 0 is no effect, 100 is complete control, approximately 10 days
In short: as §2

kochia (Kochia scoparia) [14] = experiment: Test A postemergence, visual injury rating; conditions: 0 to 100 scale, 0 is no effect, 100 is complete control, approximately 10 days
In short: as §2

[15] = system: pigweed (Amaranthus retroflexus); experiment: Test A postemergence, visual injury rating; conditions: 0 to 100 scale, 0 is no effect, 100 is complete control, approximately 10 days
In short: as §2

[16] = system: Italian ryegrass (Lolium multiflorum); experiment: Test A postemergence, visual injury rating; conditions: 0 to 100 scale, 0 is no effect, 100 is complete control, approximately 10 days
In short: as §2

[17] = system: barnyardgrass (Echinochloa crus-galli); experiment: Test A postemergence, visual injury rating; conditions: 0 to 100 scale, 0 is no effect, 100 is complete control, approximately 10 days
In short: as §2

[18] = system: wheat (Triticum aestivum); experiment: Test A postemergence, visual injury rating; conditions: 0 to 100 scale, 0 is no effect, 100 is complete control, approximately 10 days
In short: as §2

[19] = 31 g ai/ha, 0 to 100 scale, 0 no effect, 100 complete control
[20] = 125 g ai/ha, 0 to 100 scale (0 no effect, 100 complete control)

Structure (SMILES): N#Cc1cccc(Oc2ncc(Cl)cn2)c1C(=O)CCC(F)(F)C(F)(F)F [Compound 111]
- Plant response rating, Sedge, Umbrella [1]: 0
- Plant response rating, Barnyardgrass [2]: 0
- Plant response rating, Ducksalad [3]: 0
- Plant response rating, Rice (rice (Oryza sativa)): 0
- Plant response rating, Foxtail, Giant [4, 19]: 0
- Plant response rating, Foxtail, Giant [4, 20]: 0
- Plant response rating, Ragweed [5, 19]: 0
- Plant response rating, Ragweed [5, 20]: 0
- Plant response rating, Kochia (kochia (Kochia scoparia) [6]; [19]): 0
- Plant response rating, Kochia (kochia (Kochia scoparia) [6]; [20]): 0
- Plant response rating, Pigweed [7, 19]: 0
- Plant response rating, Pigweed [7, 20]: 0
- Plant response rating, Ryegrass, Italian [8, 19]: 0
- Plant response rating, Ryegrass, Italian [8, 20]: 0
- Plant response rating, Barnyardgrass [9, 19]: 0
- Plant response rating, Barnyardgrass [9, 20]: 0
- Blackgrass plant response rating ([10]; 31 g ai/ha): 0
- Blackgrass plant response rating ([10]; 125 g ai/ha): 0
- Foxtail, Giant plant response rating ([11]; 31 g ai/ha): 0
- Foxtail, Giant plant response rating ([11]; 125 g ai/ha): 0
- Galium plant response rating ([12]; 31 g ai/ha): 0
- Galium plant response rating ([12]; 125 g ai/ha): 0
- Ragweed plant response rating ([13]; 31 g ai/ha): 0
- Ragweed plant response rating ([13]; 125 g ai/ha): 0
- Corn plant response rating (corn (Zea mays); 31 g ai/ha): 0
- Corn plant response rating (corn (Zea mays); 125 g ai/ha): 0
- Kochia plant response rating (kochia (Kochia scoparia) [14]; 31 g ai/ha): 0
- Kochia plant response rating (kochia (Kochia scoparia) [14]; 125 g ai/ha): 0
- Pigweed plant response rating ([15]; 31 g ai/ha): 0
- Pigweed plant response rating ([15]; 125 g ai/ha): 0
- Ryegrass, Italian plant response rating ([16]; 31 g ai/ha): 0
- Ryegrass, Italian plant response rating ([16]; 125 g ai/ha): 0
- Barnyardgrass plant response rating ([17]; 31 g ai/ha): 0
- Barnyardgrass plant response rating ([17]; 125 g ai/ha): 0
- Wheat plant response rating ([18]; 31 g ai/ha): 0
- Wheat plant response rating ([18]; 125 g ai/ha): 0

Structure (SMILES): COc1cccc(Oc2ncc(Cl)cn2)c1C(=O)OCCC(F)(F)F [Compound 112]
- Plant response rating, Sedge, Umbrella [1]: 100
- Plant response rating, Barnyardgrass [2]: 20
- Plant response rating, Ducksalad [3]: 100
- Plant response rating, Rice (rice (Oryza sativa)): 40
- Plant response rating, Foxtail, Giant [4, 19]: 0
- Plant response rating, Foxtail, Giant [4, 20]: 70
- Plant response rating, Ragweed [5, 19]: 0
- Plant response rating, Ragweed [5, 20]: 0
- Plant response rating, Kochia (kochia (Kochia scoparia) [6]; [19]): 0
- Plant response rating, Kochia (kochia (Kochia scoparia) [6]; [20]): 50
- Plant response rating, Pigweed [7, 19]: 60
- Plant response rating, Pigweed [7, 20]: 100
- Plant response rating, Ryegrass, Italian [8, 19]: 10
- Plant response rating, Ryegrass, Italian [8, 20]: 0
- Plant response rating, Barnyardgrass [9, 19]: 0
- Plant response rating, Barnyardgrass [9, 20]: 80
- Blackgrass plant response rating ([10]; 31 g ai/ha): 0
- Blackgrass plant response rating ([10]; 125 g ai/ha): 30
- Foxtail, Giant plant response rating ([11]; 31 g ai/ha): 0
- Foxtail, Giant plant response rating ([11]; 125 g ai/ha): 30
- Galium plant response rating ([12]; 31 g ai/ha): 60
- Galium plant response rating ([12]; 125 g ai/ha): 80
- Ragweed plant response rating ([13]; 31 g ai/ha): 20
- Ragweed plant response rating ([13]; 125 g ai/ha): 40
- Corn plant response rating (corn (Zea mays); 31 g ai/ha): 0
- Corn plant response rating (corn (Zea mays); 125 g ai/ha): 0
- Kochia plant response rating (kochia (Kochia scoparia) [14]; 31 g ai/ha): 0
- Kochia plant response rating (kochia (Kochia scoparia) [14]; 125 g ai/ha): 30
- Pigweed plant response rating ([15]; 31 g ai/ha): 40
- Pigweed plant response rating ([15]; 125 g ai/ha): 70
- Ryegrass, Italian plant response rating ([16]; 31 g ai/ha): 0
- Ryegrass, Italian plant response rating ([16]; 125 g ai/ha): 0
- Barnyardgrass plant response rating ([17]; 31 g ai/ha): 0
- Barnyardgrass plant response rating ([17]; 125 g ai/ha): 10
- Wheat plant response rating ([18]; 31 g ai/ha): 0
- Wheat plant response rating ([18]; 125 g ai/ha): 0

Structure (SMILES): O=C(OCCC(F)(F)F)c1c(Oc2ncc(Cl)cn2)cccc1C(F)(F)F [Compound 113]
- Plant response rating, Sedge, Umbrella [1]: 90
- Plant response rating, Barnyardgrass [2]: 65
- Plant response rating, Ducksalad [3]: 80
- Plant response rating, Rice (rice (Oryza sativa)): 20
- Plant response rating, Foxtail, Giant [4, 19]: 60
- Plant response rating, Foxtail, Giant [4, 20]: 100
- Plant response rating, Ragweed [5, 19]: 0
- Plant response rating, Ragweed [5, 20]: 0
- Plant response rating, Kochia (kochia (Kochia scoparia) [6]; [19]): 10
- Plant response rating, Kochia (kochia (Kochia scoparia) [6]; [20]): 60
- Plant response rating, Pigweed [7, 19]: 100
- Plant response rating, Pigweed [7, 20]: 100
- Plant response rating, Ryegrass, Italian [8, 19]: 10
- Plant response rating, Ryegrass, Italian [8, 20]: 40
- Plant response rating, Barnyardgrass [9, 19]: 0
- Plant response rating, Barnyardgrass [9, 20]: 90
- Blackgrass plant response rating ([10]; 31 g ai/ha): 0
- Blackgrass plant response rating ([10]; 125 g ai/ha): 40
- Foxtail, Giant plant response rating ([11]; 31 g ai/ha): 10
- Foxtail, Giant plant response rating ([11]; 125 g ai/ha): 50
- Galium plant response rating ([12]; 31 g ai/ha): 40
- Galium plant response rating ([12]; 125 g ai/ha): 80
- Ragweed plant response rating ([13]; 31 g ai/ha): 0
- Ragweed plant response rating ([13]; 125 g ai/ha): 20
- Corn plant response rating (corn (Zea mays); 31 g ai/ha): 10
- Corn plant response rating (corn (Zea mays); 125 g ai/ha): 20
- Kochia plant response rating (kochia (Kochia scoparia) [14]; 31 g ai/ha): 80
- Kochia plant response rating (kochia (Kochia scoparia) [14]; 125 g ai/ha): 100
- Pigweed plant response rating ([15]; 31 g ai/ha): 90
- Pigweed plant response rating ([15]; 125 g ai/ha): 100
- Ryegrass, Italian plant response rating ([16]; 31 g ai/ha): 0
- Ryegrass, Italian plant response rating ([16]; 125 g ai/ha): 30
- Barnyardgrass plant response rating ([17]; 31 g ai/ha): 10
- Barnyardgrass plant response rating ([17]; 125 g ai/ha): 40
- Wheat plant response rating ([18]; 31 g ai/ha): 0
- Wheat plant response rating ([18]; 125 g ai/ha): 20

Structure (SMILES): CCCCC(C#N)c1c(Br)cccc1Oc1ncc(Cl)cn1 (stereo not drawn) [Compound 114]
- Plant response rating, Sedge, Umbrella [1]: 90
- Plant response rating, Barnyardgrass [2]: 0
- Plant response rating, Ducksalad [3]: 40
- Plant response rating, Rice (rice (Oryza sativa)): 0
- Plant response rating, Foxtail, Giant [4, 19]: 10
- Plant response rating, Foxtail, Giant [4, 20]: 90
- Plant response rating, Ragweed [5, 19]: 20
- Plant response rating, Ragweed [5, 20]: 80
- Plant response rating, Kochia (kochia (Kochia scoparia) [6]; [19]): 0
- Plant response rating, Kochia (kochia (Kochia scoparia) [6]; [20]): 10
- Plant response rating, Pigweed [7, 19]: 0
- Plant response rating, Pigweed [7, 20]: 30
- Plant response rating, Ryegrass, Italian [8, 19]: 0
- Plant response rating, Ryegrass, Italian [8, 20]: 0
- Plant response rating, Barnyardgrass [9, 19]: 0
- Plant response rating, Barnyardgrass [9, 20]: 20
- Blackgrass plant response rating ([10]; 31 g ai/ha): 0
- Blackgrass plant response rating ([10]; 125 g ai/ha): 10
- Foxtail, Giant plant response rating ([11]; 31 g ai/ha): 0
- Foxtail, Giant plant response rating ([11]; 125 g ai/ha): 20
- Galium plant response rating ([12]; 31 g ai/ha): 50
- Galium plant response rating ([12]; 125 g ai/ha): 80
- Ragweed plant response rating ([13]; 31 g ai/ha): 0
- Ragweed plant response rating ([13]; 125 g ai/ha): 20
- Corn plant response rating (corn (Zea mays); 31 g ai/ha): 10
- Corn plant response rating (corn (Zea mays); 125 g ai/ha): 20
- Kochia plant response rating (kochia (Kochia scoparia) [14]; 31 g ai/ha): 20
- Kochia plant response rating (kochia (Kochia scoparia) [14]; 125 g ai/ha): 80
- Pigweed plant response rating ([15]; 31 g ai/ha): 50
- Pigweed plant response rating ([15]; 125 g ai/ha): 100
- Ryegrass, Italian plant response rating ([16]; 31 g ai/ha): 0
- Ryegrass, Italian plant response rating ([16]; 125 g ai/ha): 10
- Barnyardgrass plant response rating ([17]; 31 g ai/ha): 0
- Barnyardgrass plant response rating ([17]; 125 g ai/ha): 10
- Wheat plant response rating ([18]; 31 g ai/ha): 0
- Wheat plant response rating ([18]; 125 g ai/ha): 10
